From US20110176998A1, “IMAGING AND THERAPY OF VIRUS-ASSOCIATED TUMORS” (THE JOHNS HOPKINS UNIVERSITY, priority 2007, published 2011)
“And” between values parts separate entries of the source, which are not always exact repeats. Equal entries are not always repeated.

Experiments:
[1] = test system: EBV(+) Burkitt's lymphoma xenografts (Akata); assay: [125I]FIAU imaging and ex vivo biodistribution, EBV(+) Akata xenografts; assay type: in vivo, SCID mice; conditions: for % ID/g derived from SPECT-CT images, tumor: bortezomib 2 μg/g, one mouse, SD from slices; for % ID/g ± SD, Blood / % ID/g ± SD, Kidney / % ID/g ± SD, Liver / % ID/g ± SD, Muscle / % ID/g ± SD, Spleen / % ID/g ± SD, Tumor: n = 4
Procedure: 5×10^6 cells were resuspended in 200 μL Matrigel Matrix (ED Biosciences, Bedford, Mass.) and injected subcutaneously near the shoulder of 6-7-week-old male severe combined immunodeficient (SCID) mice.
All work was undertaken in accordance with the regulations of Johns Hopkins Animal Care and Use Committee. Adult male SCID mice (5-6 weeks old) were purchased from the National Cancer Institute (Frederick, Md.). Three days before imaging, all mice received 1 mL intraperitoneal (i.p.) injections of 0.9% NaI solution daily for 3 consecutive days to block the thyroid uptake of free radioiodide. Twenty four hours prior to [^125I]FIAU injection, lytic induction was initiated with bortezomib. Each mouse was injected i.p. with a dose of 2 μg/g of bortezomib. Bortezomib was made fresh in PBS and filter sterilized with a 0.2 μm syringe filter (Millipore, Billerica, Mass.) immediately before each injection. Control mice were injected i.p. with PBS alone. On the day of radiotracer injection, the animals were anesthetized with 2.3 mL/kg of a mixture of 25 mg/mL ketamine and 2 mg/mL acepromazine in 0.9% saline injected i.p. Isoflurane (0.5%-1% at 0.5-1 L/minute) was administered to maintain anesthesia.
Four mice were sacrificed at each indicated time by cervical dislocation. Tumor, liver, spleen, kidney, fat, blood, and muscle were removed and weighed after which the tissue radioactivity was measured using an automated gamma counter. A 0.1 mL sample of blood was also collected. […] The standard deviation (SD) was also calculated.
(§1) Quantitative data were not derived from the images except for once instance that employed SPECT-CT (see below). […] The detector material or scintillator crystal is composed of NaI[Tl], which has a pixel size 2 mm×2 mm×6 mm. […] The static acquisition protocol of the LumaGEM™ software provided with the X-SPECT was used.

[2] = test system: Rael Burkitt's lymphoma (EBV); assay: [125I]FIAU imaging and tissue distribution, Rael xenografts; assay type: in vivo, SCID mice
Procedure: Bortezomib was always administered 24 hours before [^125I]FIAU, also intravenously. […] 2 μg/g of bortezomib stimulated the maximum target to non-target signal ratio at 96 hours after treatment in this cell line. The radioactivity depicted by the arrow in FIG. 14B at the 96 hour time point was within the tumor as shown by concurrent ex vivo gamma counting. Similar results were obtained in animals bearing another EBV(+) Burkitt cell line (Rael) xenograft. […] The percentage of injected dose per gram (% ID/g) derived from the images was 1.13±0.01 and 0.70±0.01 at 72 and 96 hours, respectively. Only one mouse was imaged with SPECT-CT, so the standard deviation (SD) values were derived from the multiple slices of each image.

[3] = test system: EBV(−) osteosarcoma xenografts (V143b); assay: [125I]FIAU imaging, V143b control tumors; assay type: in vivo, mice; conditions: with or without bortezomib
Text: as §1

[4] = test system: BC3 lymphoma (KSHV); assay: [125I]FIAU imaging and tissue distribution, BC3 xenograft; assay type: in vivo, SCID mice
Text: (§2) The approach observed in EBV-associated tumors is also applicable to other KSHV-associated tumors as shown in studies on two primary effusion lymphoma (PEL) cell lines that harbor KSHV. […] Finally, when induction with bortezomib was followed by treatment with [^131I]FIAU tumors regressed (FIG. 19C).

[5] = test system: BCBL1 lymphoma (KSHV); assay: [125I]FIAU imaging and tissue distribution, BCBL1 xenograft; assay type: in vivo, SCID mice
Text: as §2

[6] = test system: KT gastric cancer (EBV); assay: [125I]FIAU imaging and tissue distribution, KT xenograft
[7] = test system: TK143b osteosarcoma (constitutive EBV TK); assay: [125I]FIAU imaging and tissue distribution, TK143b tumors
[8] = test system: human osteosarcoma 143B cells expressing EBV TK; assay: tumor growth, EBV-TK expressing 143B tumors; assay type: in vivo, mice
Procedure: To determine whether EBV-TK mediated concentration of radioisotope in tumor tissue was adequate to achieve a therapeutic effect, mice with tumors were treated with [^131I]FIAU or buffered saline (FIG. 18A-18C).
(§3) Biostatistics. Linear regression and curve fitting were undertaken carried using GraphPad Prism software version 5.00 for Windows, GraphPad Software, San Diego Calif. USA, www.graphpad.com.

[9] = test system: EBV(+) Burkitt's lymphoma (Rael); assay: tumor growth, EBV(+) Burkitt's lymphoma (Rael) xenografts; assay type: in vivo, SCID mice
Procedure: (§4) Therefore, an evaluation of a therapeutic isotope was carried out. As described above, SCID mice engrafted with EBV Burkitt's lymphoma xenografts received either buffer or bortezomib followed the next day by treatment with [^131I]FIAU or no treatment. […] Thus, bortezomib allowed targeting of [^131I]FIAU with therapeutic effect. Other proteasome inhibitors are also likely to be active. Several are in clinical trial.
as §3

[10] = test system: EBV(+) Burkitt's lymphoma cell line (Akata); assay: tumor growth, EBV(+) Burkitt's lymphoma (Akata) xenografts; assay type: in vivo, SCID mice; conditions: bortezomib followed by [131I]FIAU; second cell line
Procedure: as §4

[11] = test system: KSHV(+) primary effusion lymphoma (BCBL1); assay: tumor growth, KSHV(+) primary effusion lymphoma (BCBL1) xenograft; assay type: in vivo, SCID mice; conditions: bortezomib induction followed by [131I]FIAU
Text: as §2

[12] = scale-up of mouse biodistribution data to the human, MIRD dosimetry (OLINDA)
Text: Murine biodistribution data were converted to equivalent human data for dosimetry by assuming that the organ or tumor to whole-body concentration ratio in the mouse is equivalent to that in the human.
The initial (i.e., 2-h) activity concentration in the mouse tumor of 1.95% ID/g becomes 7×10^−4% ID/g, assuming a 1 gm tumor in the human. At this concentration, and assuming negligible biological clearance of ^131I, as shown in the biodistribution data, the absorbed dose per administered activity to a 1 gm tumor in a 70 kg human is 0.1 mGy/MBq (0.38 rad/mCi). […] The 5 to 20 GBq (135 to 540 mCi) required to deliver this dose-range is well within normal organ tolerance given the normal organ absorbed dose estimates listed in the table. A total administered activity of 20 GBq would result in 0.2 and 0.02 Gy to the kidneys and red marrow, respectively. Based on external beam and radiopeptide experience, the kidneys can tolerate 25 to 27 Gy before the onset of toxicity; the red marrow maximally tolerated dose is 2 Gy. Administration of a 540 mCi dose would likely present logistical problems, but these could be accommodated by fractioning the administration over three to four injections.

[13] = test system: EBV(+) gastric adenocarcinoma (KT); assay: tumor growth, EBV(+) gastric adenocarcinoma (KT) xenograft; conditions: bortezomib induction followed by [131I]FIAU
Procedure: Bortezomib was administered intravenously at 1.67 μg/gram. […] For imaging or treatment, FIAU was administered 24 hours after bortezomib. In each of the experiments described bortezomib was administered as a single dose.

[14] = Rael, bortezomib induction, 4 days p.i., 5 μCi, N 4
[15] = bortezomib induction, 5 days p.i., 5 μCi, N 3
[16] = bortezomib induction, 4 days p.i., 5 μCi, N 5
[17] = KT, bortezomib induction, 4 days p.i., 5 μCi, N 3
[18] = TK143b, constitutive EBV TK, 4 days p.i., 5 μCi, N 3
[19] = total administered activity of 20 GBq

For `O=c1[nH]c(=O)n([C@@H]2O[C@H](CO)[C@@H](O)[C@@H]2F)cc1[125I]` [[^125I]FIAU, [^125I]2-fluoro-2′-deoxy-beta-D-5-iodouracil-arabinofuranoside], the “% ID/g derived from SPECT-CT images, tumor” value ([1]; 72 hours after radiopharmaceutical) was 1.13±0.01 % ID/g, the “increase of tumor uptake over baseline after bortezomib” value ([1]; 96 h, bortezomib vs PBS) was about 22 fold and the “% ID/g derived from SPECT-CT images, tumor” value ([1]; 96 hours after radiopharmaceutical) was 0.70±0.01 % ID/g. For the same molecule, the “% ID/g ± SD, Blood” value ([1]; Bortezomib treatment, 96 h) was 0.022 ± 0.010 % ID/g, the “% ID/g ± SD, Kidney” value ([1]; Bortezomib treatment, 96 h) was 0.070 ± 0.010 % ID/g and the “% ID/g ± SD, Liver” value ([1]; Bortezomib treatment, 96 h) was 0.016 ± 0.002 % ID/g. The “% ID/g ± SD, Muscle” value ([1]; Bortezomib treatment, 96 h) was 0.040 ± 0.005 % ID/g, the “% ID/g ± SD, Spleen” value ([1]; Bortezomib treatment, 96 h) was 0.060 ± 0.011 % ID/g and the “% ID/g ± SD, Tumor” value ([1]; Bortezomib treatment, 96 h) was 0.85 % ID/g and 0.850 ± 0.102 % ID/g. The “% ID/g ± SD, Blood” value ([1]; PBS treatment, 96 h) was 0.033 ± 0.009 % ID/g, the “% ID/g ± SD, Kidney” value ([1]; PBS treatment, 96 h) was 0.068 ± 0.014 % ID/g and the “% ID/g ± SD, Liver” value ([1]; PBS treatment, 96 h) was 0.029 ± 0.011 % ID/g. The “% ID/g ± SD, Muscle” value ([1]; PBS treatment, 96 h) was 0.030 ± 0.010 % ID/g, the “% ID/g ± SD, Spleen” value ([1]; PBS treatment, 96 h) was 0.014 ± 0.006 % ID/g and the “% ID/g ± SD, Tumor” value ([1]; PBS treatment, 96 h) was 0.039 % ID/g and 0.039 ± 0.010 % ID/g. The “tumor visualization, planar gamma imaging” value ([1]; bortezomib 2 μg/g 24 hours before, 4 days postinjection) was “clearly visible”, the “time of peak tumor uptake” value ([1]; postinjection, pretreated with bortezomib) was 96 h and the “tumor uptake, planar gamma imaging” value ([1]; pretreated with PBS only) was “no tumor uptake was evident”. For the same molecule, the “% ID/g ± SD, Kidney” value [2, 14] was 0.146 ± .054 % ID/g, the “% ID/g ± SD, Liver” value [2, 14] was 0.052 ± .027 % ID/g and the “% ID/g ± SD, Muscle” value [2, 14] was 0.084 ± .012 % ID/g. For the same molecule, the “% ID/g ± SD, Spleen” value [2, 14] was 0.064 ± .011 % ID/g, the “% ID/g ± SD, Tumor” value [2, 14] was 1.200 ± 0.356 % ID/g and the tumor visualization ([2]; following bortezomib, by 30 hours after radiopharmaceutical injection) was “clearly visualized”. For the same molecule, the “tumor uptake on imaging” value [3] was “No tumor uptake was evident”, the tumor imaging ([4]; after bortezomib) was “allowed imaging” and the “% ID/g ± SD, Kidney” value [4, 15] was 0.027 ± 0.003 % ID/g. The “% ID/g ± SD, Liver” value [4, 15] was 0.009 ± 0.002 % ID/g, the “% ID/g ± SD, Muscle” value [4, 15] was 0.008 ± 0.004 % ID/g and the “% ID/g ± SD, Spleen” value [4, 15] was 0.008 ± 0.002 % ID/g. The “% ID/g ± SD, Tumor” value [4, 15] was 1.213 ± 0.214 % ID/g, the “range of uptake as % ID/g (color bar), SPECT-CT” value ([5]; 48 hours p.i., following bortezomib) was 1.53 % ID/g and the tumor imaging ([5]; after bortezomib) was “allowed imaging”. For the same molecule, the “% ID/g ± SD, Kidney” value [5, 16] was 0.167 ± 0.038 % ID/g, the “% ID/g ± SD, Liver” value [5, 16] was 0.0617 ± 0.022 % ID/g and the “% ID/g ± SD, Muscle” value [5, 16] was 0.078 ± 0.005 % ID/g. The “% ID/g ± SD, Spleen” value [5, 16] was 0.064 ± 0.014 % ID/g, the “% ID/g ± SD, Tumor” value [5, 16] was 1.100 ± 0.361 % ID/g and the “range of uptake as % ID/g (color bar), SPECT-CT” value ([6]; KT tumor, 72 hours p.i., following bortezomib) was 0.68 % ID/g. For the same molecule, the “% ID/g ± SD, Kidney” value [6, 17] was 0.090 ± 0.030 % ID/g, the “% ID/g ± SD, Liver” value [6, 17] was 0.050 ± 0.017 % ID/g and the “% ID/g ± SD, Muscle” value [6, 17] was 0.080 ± 0.062 % ID/g. The “% ID/g ± SD, Spleen” value [6, 17] was 0.080 ± 0.035 % ID/g, the “% ID/g ± SD, Tumor” value [6, 17] was 0.598 ± 0.472 % ID/g and the “initial activity concentration in the mouse tumor” value ([7]; 2-h) was 1.95 % ID/g. The “tumor to muscle ratio” value ([7]; 2 hours post-infusion) was 4.6, the “tumor to muscle ratio” value ([7]; 24 hours post-infusion (peak)) was 205 and the “tumor to muscle ratio” value ([7]; 96 hours post-infusion) was 114. For the same molecule, the “% ID/g ± SD, Kidney” value [7, 18] was 0.033 ± 0.058 % ID/g, the “% ID/g ± SD, Liver” value [7, 18] was 0.013 ± 0.006 % ID/g and the “% ID/g ± SD, Muscle” value [7, 18] was 0.015 ± 0.014 % ID/g. The “% ID/g ± SD, Spleen” value [7, 18] was 0.027 ± 0.015 % ID/g, the “% ID/g ± SD, Tumor” value [7, 18] was 1.667 ± 0.681 % ID/g and the tumor imaging ([7]; cell line engineered to express constitutively the EBV-TK) was “readily imaged”. The “radioactivity levels in the tumor” value ([7]; from 2 hours until last time point at 96 hours) was “remained constant”.
In the case of `O=c1[nH]c(=O)n([C@@H]2O[C@H](CO)[C@@H](O)[C@@H]2F)cc1[131I]` [[^131I]FIAU], the “tumor growth rate in chimeric tumors” value ([8]; 10% of tumor cells harbor the EBV-TK, 1.7 mCi) was “substantially slowed”, the “tumor growth dose response” value ([8]; EBV-TK expressing tumors, 1 mCi or 3 mCi) was “increasing effects on tumor growth” and the tumor growth slope ([8]; TK tumors, 1.6 mCi IV) was “flattened”. The tumor growth ([9]; bortezomib followed 24 hours later by [131I]FIAU) was “stopped tumor growth”, the “tumor growth curves vs buffer alone” value ([9]; buffer followed by [131I]FIAU) was “similar” and the tumor growth [10] was “parallel results”. For the same molecule, the tumor growth [11] was “regressed”, the “tumor activity concentration scaled to the human” value ([12]; assuming a 1 gm tumor in the human) was 7×10^−4 % ID/g and the “absorbed dose to the kidneys” value [12, 19] was 0.2 Gy. The “absorbed dose to the red marrow” value [12, 19] was 0.02 Gy and the tumor growth rate [13] was “diminished”.
